Experimental data taken from patent US20260103465A1, “GLYCOGEN SYNTHASE KINASE 3 INHIBITORS AND USES THEREOF” (The Broad Institute, Inc., priority 2023, published 2026).
Like-named read-outs stand apart in the source and are kept apart here.

Legend:
[1] = molecular target: T1, GSK3b (GST-full length GSK3b) (Homo sapiens, UniProt P49841); test: GSK3b TR-FRET kinase inhibition assay; type: biochemical
T1 construct: GST-full length GSK3b: [SignalChem G08-9G]; purchased SignalChem G08-9G
Method in brief: (§1)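 GST-tagged full-length human kinase (1 nM), pre-incubated 30 min with compound, then reacted 100 min at ambient temperature at pH 7.5 with 200 nM biotinylated phospho-S645 glycogen synthase 631–650 peptide and ATP at 2 μM–1 mM. After EDTA quench, Tb-pSer641 antibody/streptavidin-d2 TR-FRET 665/615 ratio fitted for IC50.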

[2] = molecular target: T2, GSK3a (GST-full length GSK3a) (Homo sapiens, UniProt P49840); test: GSK3a TR-FRET kinase inhibition assay; type: biochemical
T2 construct: GST-full length GSK3a [SignalChem G08-10G]; purchased SignalChem G08-10G
T2 sequence (P49840 whole entry): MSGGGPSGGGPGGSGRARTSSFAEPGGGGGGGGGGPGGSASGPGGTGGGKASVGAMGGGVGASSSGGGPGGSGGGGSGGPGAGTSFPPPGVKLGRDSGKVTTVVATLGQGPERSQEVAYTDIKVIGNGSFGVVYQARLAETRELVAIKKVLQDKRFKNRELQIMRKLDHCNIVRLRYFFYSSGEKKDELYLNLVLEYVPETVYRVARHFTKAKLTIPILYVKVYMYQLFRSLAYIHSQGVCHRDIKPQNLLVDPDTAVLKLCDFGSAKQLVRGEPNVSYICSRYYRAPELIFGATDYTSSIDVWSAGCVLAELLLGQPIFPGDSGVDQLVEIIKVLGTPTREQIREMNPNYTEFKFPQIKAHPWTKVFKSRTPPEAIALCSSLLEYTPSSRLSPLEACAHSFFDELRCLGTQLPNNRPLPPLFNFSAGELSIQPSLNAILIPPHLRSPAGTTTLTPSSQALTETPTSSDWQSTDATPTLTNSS
Method in brief: as §1

[3] = 1 mM ATP, Table 5, read-out: GSK3β TR-FRET 1 mM ATP Average IC50
[4] = 1 mM ATP, Table 5, read-out: GSK3α TR-FRET 1 mM ATP Average IC50
[5] = 1 mM ATP, Table 3, read-out: GSK3b TR-FRET 1 mM ATP Average IC50
[6] = 1 mM ATP, Table 3, read-out: GSK3a TR-FRET 1 mM ATP Average IC50
[7] = 2 μM ATP, read-out: GSK3β TR-FRET 2 μM ATP GMean IC50
[8] = 4 μM ATP, read-out: GSK3α TR-FRET 4 μM ATP GMean IC50
[9] = 100 μM ATP, read-out: GSK3b 100 μM ATP Average IC50
[10] = 100 μM ATP, read-out: GSK3a 100 μM ATP Average IC50

T1 sequence (P49841 whole entry): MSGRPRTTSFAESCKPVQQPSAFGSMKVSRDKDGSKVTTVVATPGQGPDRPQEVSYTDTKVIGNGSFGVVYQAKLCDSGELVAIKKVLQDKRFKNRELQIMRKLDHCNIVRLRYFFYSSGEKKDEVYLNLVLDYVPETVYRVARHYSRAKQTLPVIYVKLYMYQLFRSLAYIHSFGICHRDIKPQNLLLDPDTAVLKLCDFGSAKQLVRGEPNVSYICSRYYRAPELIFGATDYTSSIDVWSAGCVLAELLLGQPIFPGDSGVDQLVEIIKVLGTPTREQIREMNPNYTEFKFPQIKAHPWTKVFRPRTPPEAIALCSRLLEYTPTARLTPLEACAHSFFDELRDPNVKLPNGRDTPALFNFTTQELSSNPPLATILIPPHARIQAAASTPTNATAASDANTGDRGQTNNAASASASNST

Row | IC50 [1, 3] [µM] | IC50 [2, 4] [µM] | IC50 [1, 5] [µM] | IC50 [2, 6] [µM] | Compound | other results
1 | 1 to 5 | 5 to 20 |  |  | CC1(C)CC(=O)C2=C(C1)Nc1ncc(C(F)F)c(C#N)c1C2(C)c1ccccc1 (single isomer, unassigned) [627B] | 
2 | ≤ 0.1 | ≤ 0.1 |  |  | CC1(C)CC(=O)C2=C(C1)Nc1ncc(F)cc1C2(C)c1cccc(-c2ccncc2CC(F)(F)F)c1 (single isomer, unassigned) [653B] | 
3 | 0.1 to 1 | 1 to 5 |  |  | CN1C(=O)C2=C(CC1(C)C)Nc1ncc(C(F)F)c(C#N)c1C2(C)c1ccccc1 (single isomer, unassigned) [632A] | 
4 | 0.1 to 1 | 1 to 5 |  |  | CC1(C)CC(=O)C2=C(Nc3ncc(C(F)F)c(C#N)c3[C@@]2(C)c2ccccc2)[C@H]1F (single isomer, unassigned) [Compound 633D] | 
5 | 1 to 5 | 1 to 5 |  |  | C=Cc1cnc2c(c1C#N)C(C)(c1ccccc1)C1=C(CC(C)(C)CC1=O)N2 (single isomer, unassigned) [607A] | 
6 | 5 to 20 | 5 to 20 |  |  | CNc1cnc2c(c1C#N)C(C)(c1ccccc1)C1=C(CC(C)(C)CC1=O)N2 (single isomer, unassigned) [610B] | 
7 |  |  | 1 to 5 | 1 to 5 | CC1(C)CC(=O)C2=C(C1)Nc1ncc(Br)c(Cl)c1C2(C)c1ccccc1 (single isomer, unassigned) [Compound 145A] | 
8 | 0.1 to 1 | 1 to 5 |  |  | CC1(C)CC2=C(C(=O)N1)C(C)(c1ccccc1)c1c(ncc(C(F)F)c1C#N)N2 (single isomer, unassigned) [628B] | 
9 | 0.1 to 1 | 0.1 to 1 |  |  | CC1(C)CC(=O)C2=C(Nc3ncc(F)c(C#N)c3[C@@]2(C)c2ccccc2)[C@@H]1F (single isomer, unassigned) [Compound 617B] | 
10 |  |  | 1 to 5 | 1 to 5 | CC(C)(C)Cc1cncc(F)c1-c1cccc(C2(C)C3=C(CC(C)(C)CC3=O)Nc3ncc(F)cc32)c1 (single isomer, unassigned) [Compound 173A] | 
11 | 5 to 20 | 5 to 20 |  |  | CC(C)Oc1cccc(C2(C)C3=C(CC(C)(C)CC3=O)Nc3ncc(F)c(C#N)c32)c1 (single isomer, unassigned) [639A] | 
12 |  |  | 5 to 20 | 5 to 20 | CC1(C)CC(=O)C2=C(C1)Nc1ncc(C(C)(C)C)cc1C2(C)c1ccccc1 (single isomer, unassigned) [Compound 124B] | 
13 | 1 to 5 | 1 to 5 |  |  | CC1(C)CC2=C(C(=O)N1)C(C)(c1ccccc1)c1c(ncc(F)c1C#N)N2 (single isomer, unassigned) [604A] | 
14 |  |  | 5 to 20 |  | CC1(C)CC(=O)C2=C(C1)Nc1ncc(C3CCC3)cc1C2(C)c1ccccc1 (single isomer, unassigned) [Compound 122A] | IC50 [1, 9]: 1 to 5 µM; IC50 [2, 10]: 1 to 5 µM
15 |  |  | 1 to 5 | 1 to 5 | COc1cncc(F)c1-c1cccc(C2(C)C3=C(CC(C)(C)CC3=O)Nc3ncc(C(F)(F)F)cc32)c1 (single isomer, unassigned) [Compound 174A] | 
16 |  |  | 1 to 5 | 1 to 5 | CC1(C)CC(=O)C2=C(C1)Nc1ncccc1C2(C)c1cccc(-c2ccncc2C2CCC2)c1 (single isomer, unassigned) [Compound 151A] | 
17 |  |  | 1 to 5 | 0.1 to 1 | CCC1(c2cccc(-c3ccnc(C)c3C)c2)C2=C(CC(C)(C)CC2=O)Nc2ncccc21 (single isomer, unassigned) [Compound 147A] | 

The next lines start with the molecule.

Row | Compound | IC50 [1, 3] [µM] | IC50 [2, 4] [µM] | IC50 [1, 5] [µM] | IC50 [2, 6] [µM] | other results
18 | CC1(C)CC(=O)C2=C(C1)Nc1ncccc1C2(C)c1cccc(-c2ccncc2)c1 (single isomer, unassigned) [Compound 131B] |  |  | 1 to 5 | 1 to 5 | 
19 | CCC1(c2cccc(-c3ccnc(C)c3)c2)C2=C(CC(C)(C)CC2=O)Nc2ncccc21 (single isomer, unassigned) [Compound 1021B] |  |  |  |  | IC50 [1, 7]: 0.1 to 1 µM; IC50 [2, 8]: 0.1 to 1 µM
20 | CCC1(c2cccc(-c3cccnc3)c2)C2=C(CC(C)(C)CC2=O)Nc2ncccc21 (single isomer, unassigned) [Compound 1015B] |  |  |  |  | IC50 [1, 7]: > 5 µM; IC50 [2, 8]: 1 to 5 µM
21 | CC1(C)CC(=O)C2=C(C1)Nc1ncc(C#N)cc1C2(C)c1ccccc1 (single isomer, unassigned) [Compound 109B] |  |  | 5 to 20 | 5 to 20 | 
22 | CCc1cnc2c(c1)C(C)(c1ccccc1)C1=C(CC(C)(C)CC1=O)N2 (single isomer, unassigned) [Compound 113A] |  |  | 1 to 5 |  | IC50 [1, 9]: 0.1 to 1 µM; IC50 [2, 10]: 1 to 5 µM
23 | CCC1(c2cccc(-c3ccnc(C)c3)c2)C2=C(CC(C)(C)CC2=O)Nc2ncccc21 (single isomer, unassigned) [Compound 1021A] |  |  |  |  | IC50 [1, 7]: > 5 µM; IC50 [2, 8]: > 5 µM
24 | CC1(C)CC(=O)C2=C(C1)Nc1ncccc1C2(C)c1cccc(-c2ccncc2OCC(F)F)c1 (single isomer, unassigned) [Compound 162A] |  |  | 1 to 5 | 5 to 20 | 
25 | CCC1(c2cccc(-c3ccnc(C)c3C)c2)C2=C(CC(C)(C)CC2=O)Nc2ncccc21 (single isomer, unassigned) [147 A] |  |  |  |  | IC50 [1, 7]: > 5 µM; IC50 [2, 8]: 1 to 5 µM
26 | CC1(C)CC(=O)C2=C(C1)Nc1ncc(C(F)(F)F)cc1C2(C)c1cccc(S(C)(=O)=O)c1 (single isomer, unassigned) [Compound 157A] |  |  | 0.1 to 1 | 1 to 5 | 
27 | CC1(C)CC(=O)C2=C(C1)Nc1ncc(C3CC3)c(C#N)c1C2(C)c1ccccc1 (single isomer, unassigned) [619A] | 5 to 20 | 5 to 20 |  |  | 
28 | COc1cncc(F)c1-c1cccc(C2(C)C3=C(CC(C)(C)CC3=O)Nc3ncc(C)cc32)c1 (single isomer, unassigned) [Compound 155A] |  |  | 1 to 5 | 0.1 to 1 | 
29 | Cc1nn(C)c(C)c1-c1cccc(C2(C)C3=C(CC(C)(C)CC3=O)Nc3ncc(C(F)(F)F)cc32)c1 (single isomer, unassigned) [Compound 170B] |  |  | 1 to 5 | 5 to 20 | 
30 | CCC1(c2cccc(-c3cnn(C)c3)c2)C2=C(CC(C)(C)CC2=O)Nc2ncccc21 (single isomer, unassigned) [Compound 1018A] |  |  |  |  | IC50 [1, 7]: > 5 µM; IC50 [2, 8]: > 5 µM
31 | CC1(C)CC2=C(C(=O)[C@H]1F)[C@@](C)(c1ccccc1)c1c(ncc(F)c1C#N)N2 (single isomer, unassigned) [Compound 616C] | 5 to 20 | 5 to 20 |  |  | 
32 | CC1(C)CC(=O)C2=C(C1)Nc1ncc(F)c(C3CC3)c1C2(C)c1cccc(S(C)(=O)=O)c1 (single isomer, unassigned) [Compound 153B] |  |  | 5 to 20 | 5 to 20 | 
33 | CCC1(c2ccccc2)C2=C(CC(C)(C)NC2=O)Nc2ncc(F)cc21 (single isomer, unassigned) [Compound 1007A] |  |  |  |  | IC50 [1, 7]: > 5 µM; IC50 [2, 8]: > 5 µM
34 | CCC1(c2cccc(-c3ccncc3C)c2)C2=C(CC(C)(C)CC2=O)Nc2ncc(F)cc21 (single isomer, unassigned) [Compound 1031A] |  |  |  |  | IC50 [1, 7]: 0.1 to 1 µM; IC50 [2, 8]: 0.1 to 1 µM
35 | C=Cc1cnc2c(c1C#N)C(C)(c1ccccc1)C1=C(CC(C)(C)CC1=O)N2 (single isomer, unassigned) [607B] | 5 to 20 | 5 to 20 |  |  | 
36 | CCC1(c2cccc(-c3cnnc(C)c3)c2)C2=C(CC(C)(C)CC2=O)Nc2ncccc21 (single isomer, unassigned) [Compound 1022B] |  |  |  |  | IC50 [1, 7]: > 5 µM; IC50 [2, 8]: > 5 µM
37 | CC1(C)CC(=O)C2=C(C1)Nc1ncc(C#N)cc1C2(C)c1ccccc1 (single isomer, unassigned) [Compound 109A] |  |  | 1 to 5 | 1 to 5 | 
38 | Cn1ncc2c3c(ncc21)NC1=C(C(=O)CC(C)(C)C1)C3(C)c1ccccc1 (single isomer, unassigned) [609B] | 1 to 5 | 5 to 20 |  |  | 
39 | Cc1c(C2(C)C3=C(CC(C)(C)CC3=O)Nc3ncc(F)cc32)cccc1S(C)(=O)=O (single isomer, unassigned) [643A] | 0.1 to 1 | 0.1 to 1 |  |  | 
40 | CCC1(c2cccc(-c3cc(C)nn3C)c2)C2=C(CC(C)(C)CC2=O)Nc2ncc(F)cc21 (single isomer, unassigned) [Compound 1033A] |  |  |  |  | IC50 [1, 7]: > 5 µM; IC50 [2, 8]: 1 to 5 µM
41 | CCC1(c2cccc(-c3ccnc(C)c3C)c2)C2=C(CC(C)(C)CC2=O)Nc2ncc(F)cc21 (single isomer, unassigned) [Compound 1035B] |  |  |  |  | IC50 [1, 7]: 1 to 5 µM; IC50 [2, 8]: 1 to 5 µM
42 | CC1(C)CC(=O)C2=C(C1)Nc1ncc(F)c(C#N)c1C2(C)c1cccc(S(C)(=O)=O)c1 (single isomer, unassigned) [Compound 148B] |  |  | 5 to 20 | 5 to 20 | 
43 | CCC1(c2ccccc2)C2=C(CC3(CCC3)CC2=O)Nc2ncccc21 (single isomer, unassigned) [110 A] |  |  |  |  | IC50 [1, 7]: ≤ 0.1 µM; IC50 [2, 8]: ≤ 0.1 µM
44 | CC1(C)CC(=O)C2=C(C1)Nc1ncccc1C2c1ccccc1 (stereo not shown) [Compound C1, reference compound] |  |  |  |  | IC50 [1, 7]: > 5 µM; IC50 [2, 8]: > 5 µM
45 | COc1cncc(F)c1-c1cccc(C2(C)C3=C(CC(C)(C)CC3=O)Nc3ncc(C4CC4)cc32)c1 (single isomer, unassigned) [Compound 167B] |  |  | 1 to 5 | 1 to 5 | 
46 | CC(C)c1ccnc2c1C(C)(c1ccccc1)C1=C(CC(C)(C)CC1=O)N2 (single isomer, unassigned) [Compound 120A] |  |  | 0.1 to 1 | 1 to 5 | 
